In patent US7101677B1, “Receptor assay” (University Court of the University of Glasgow, priority 1999, dated 2006):
Changes are numbered by the printed parent chain.

What was measured:
[1] = target: T1, CAM α1b-adrenoceptor/GFP fusion protein (Mesocricetus auratus, UniProt P18841, A293L/K290H/R288K); experiment: Plate fluorimetry, CAM α1b-adrenoceptor/GFP in HEK 293 cells; format: cell-based, hamster; conditions: 22 hrs treatment, range in brackets, read-out: EC50 of up-regulation of fluorescence of CAM α1b-adrenoceptor/GFP
T1 construct: expressed in transfected cells
T1 sequence (P18841 1-515 R288K/K290H/A293L): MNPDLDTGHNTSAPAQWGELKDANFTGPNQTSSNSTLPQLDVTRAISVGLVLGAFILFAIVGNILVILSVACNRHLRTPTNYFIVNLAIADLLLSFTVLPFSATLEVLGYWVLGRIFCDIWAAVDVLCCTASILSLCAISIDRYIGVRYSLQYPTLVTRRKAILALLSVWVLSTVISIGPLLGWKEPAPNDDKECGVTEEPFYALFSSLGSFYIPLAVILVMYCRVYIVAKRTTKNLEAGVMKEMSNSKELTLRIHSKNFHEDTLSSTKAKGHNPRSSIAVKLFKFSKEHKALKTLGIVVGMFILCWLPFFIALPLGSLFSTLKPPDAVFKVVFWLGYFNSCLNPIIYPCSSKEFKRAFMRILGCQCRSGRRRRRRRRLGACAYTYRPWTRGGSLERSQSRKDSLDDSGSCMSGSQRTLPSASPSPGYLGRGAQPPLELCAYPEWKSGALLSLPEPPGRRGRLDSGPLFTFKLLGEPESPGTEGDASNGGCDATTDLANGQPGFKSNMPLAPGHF
Method: These cell lines were used to investigate ligand up-regulation of the CAM α1b-adrenoceptor/GFP fusion protein. Fusion protein upregulation was measured according to a gain in total cellular fluorescence in a plate based fluorimeter.
For experiments cells were seeded into black 96 well view plates (Costar) on the day before assay. […] Cells were incubated at 37° C. for 22 hours. After incubation fluorescence was detected using a Tecan Spectrafluor plus fluorimeter. To control for plate and media autofluorescence results were calculated by subtracting a blank plate reading from the fluorescence values obtained in drug treated cells.
The time course of ligand up-regulation of the CAM α1b-adrenoceptor/GFP fusion protein was also investigated. In this study cells were seeded and treated with drug as previously described but fluorescence in the blank plate and the cell plates were read at various time points between 2–31 hours after drug addition.

[2] = target: T2, wild type hamster α1b-adrenoceptor/GFP fusion construct (Mesocricetus auratus, UniProt P18841); experiment: Confocal microscopy, wild type α1b-adrenoceptor-GFP; format: cell-based; conditions: 1 μM for 24h
T2 construct: expressed in transfected cells
T2 sequence (P18841 1-515): T1 sequence (P18841 1-515 R288K/K290H/A293L) with K288R, H290K, L293A
Method: (§1) Cells expressing either the 3CAM (10A) or wild type (10B) hamster α1b-adrenoceptor grown on glass cover slips were treated with vehicle (a), phentolamine (b), WB4101 (c) or HV723 (d) (all at 1 μM) for 24h. The cells were then visualised on a confocal microscope.
(§2) The images were manipulated with Zeiss LSM or MetaMorph software. Two different protocols for preparation of cells were used. When examining the time course of internalisation and recycling live cells were used. Cells were grown on glass coverslips and mounted on the imaging chamber. Cells were maintained in KRH buffer (see below) and temperature was maintained at 37° C. In other studies fixed cells were used. Cells on glass coverslips were washed with PBS and fixed for 20 min at room temperature using 4% paraformaldehyde in PBS/5% sucrose pH 7.2. After one wash with PBS coverslips were mounted on microscope slides with 40% glycerol in PBS.
(§3) In the first step the coding sequence of a modified form of GFP was modified by polymerase chain reaction (PCR) amplification. Using the amino-terminal primer 5′-[…]-3 the initiating Met of GFP was removed and both a Kpn I restriction site (underlined) and a 2-amino acid spacer (Gly-Asn) were introduced. Using the carboxy-terminal primer 5-[…]-3′ an Xba I restriction site (underlined) was introduced downstream of the stop codon of GFP. The amplified fragment of GFP digested with Kpn I and Xba I was subcloned into similarly digested pcDNA3 expression vector (Invitrogen). To obtain the α1B-adrenoceptor-GFP fusion proteins, the coding sequence of each form of the α1B-adrenoceptor was amplified by PCR. Using the amino-terminal primer 5′-[…]-3′, a Kpn I restriction site (underlined) was introduced upstream of the initiator Met. […] Finally, the GFP construct in pcDNA3 was digested with Kpn I and ligated together with the PCR product of the α1B-adrenoceptor amplification also digested with Kpn I. The open reading frames so produced represent the coding sequence of either the wild type or 3CAM α1B-adrenoceptor-GFPs. […]

[3] = target: T3, 3CAM hamster α1b-adrenoceptor/GFP fusion construct (Mesocricetus auratus, UniProt P18841, A293L/K290H/R288K); experiment: Confocal microscopy, 3CAM α1b-adrenoceptor-GFP; format: cell-based; conditions: 1 μM for 24h
T3 construct: expressed in transfected cells
T3 sequence (P18841 1-515 R288K/K290H/A293L): T1 sequence (P18841 1-515 R288K/K290H/A293L)
Method: as §1, §2, §3

CAM β2-adrenoceptor-GFP = target: T4, CAM β2-adrenoceptor-GFP (Homo sapiens, UniProt P07550, H269K/K267R/L266S/L272A); experiment: Confocal microscopy of CAM β2-adrenoceptor-GFP in HEK293 cells; format: cell-based; conditions: 24h, 10^−5 M
T4 construct: GFP (modified form, Zernicka-Goetz et al. 1997); expressed in transfected cells

3CAM α1b-adrenoceptor = target: T5, 3CAM α1b-adrenoceptor (Mesocricetus auratus, UniProt P18841, A293L/K290H/R288K); experiment: [3H]prazosin specific binding to membranes after ligand treatment, 3CAM; format: cell-based, hamster; conditions: FIG. 10C; [3H]prazosin 2 nM
T5 construct: expressed in transfected cells
T5 sequence (P18841 1-515 R288K/K290H/A293L): T1 sequence (P18841 1-515 R288K/K290H/A293L)
Method: (§4) Equivalent studies were performed on plates of cells which were then washed and harvested. Membranes were prepared and the specific binding capacity of a single concentration (2 nM) of [^3H]prazosin was then assessed (FIG. 10C).
(§5) HEK293 cells stably expressing each of the α1B-adrenoceptor-GFP fusion proteins were grown to confluence on 6 cm dishes. Prior to harvesting, cells were washed twice with 4 ml of ice-cold TE buffer (10 mM Tris, 0.1 mM EDTA pH 7.5) and then scraped into 1 ml of the same buffer. […] The suspension was centrifuged at 16000×g for 15 min and the resulting pellets resuspended in ice-cold TE buffer to final protein concentrations of 0.035–0.16 mg/ml.

[4] = target: T6, wild-type α1b-adrenoceptor (Mesocricetus auratus, UniProt P18841); experiment: [3H]prazosin specific binding to membranes after ligand treatment, wild type; format: cell-based, hamster; conditions: FIG. 10C; [3H]prazosin 2 nM
T6 construct: expressed in transfected cells
T6 sequence (P18841 1-515): T1 sequence (P18841 1-515 R288K/K290H/A293L) with K288R, H290K, L293A
Method: as §4, §5

[5] = target: T7, PAR1mut/GFP fusion protein (Homo sapiens, UniProt P25116, A405G/G401A/L403A/M404G/N398G/Q402G/S399A/S400G/S406A/Y397A); experiment: Agonist mediated down-regulation of PAR1mut/GFP in plate fluorimeter; format: cell-based; conditions: 4 hours incubation
T7 construct: expressed in transfected cells
T7 sequence (P25116 22-425 Y397A/N398G/S399A/S400G/G401A/Q402G/L403A/M404G/A405G/S406A): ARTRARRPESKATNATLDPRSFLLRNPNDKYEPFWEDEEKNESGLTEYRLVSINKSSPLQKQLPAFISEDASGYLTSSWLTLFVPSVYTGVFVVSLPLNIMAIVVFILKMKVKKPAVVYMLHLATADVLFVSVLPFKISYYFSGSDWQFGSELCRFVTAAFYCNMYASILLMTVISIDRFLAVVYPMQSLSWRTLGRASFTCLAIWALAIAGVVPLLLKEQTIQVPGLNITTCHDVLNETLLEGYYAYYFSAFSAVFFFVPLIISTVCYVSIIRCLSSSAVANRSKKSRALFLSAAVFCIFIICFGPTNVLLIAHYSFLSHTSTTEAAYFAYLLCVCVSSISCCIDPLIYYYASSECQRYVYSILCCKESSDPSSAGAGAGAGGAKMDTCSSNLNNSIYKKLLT
Method: PAR1 receptor internalisation occurs through two mechanisms. […] This […] in the wild type receptor with the sequence […] (Shapiro and Coughlin, 1998). […] Cells were seeded into black 96 well view plates (Costar) the day before the experiment. The growth media was replaced with phenol red free DMEM/F12 (1:1) media containing 2 mM L-glutamine and either TRAP (10 μM-1 nM) or thrombin (1-0.0001 units/ml). The media also contained 0.5 mM Brilliant Black dye to absorb any media associated autofluorescence. […] To control for plate and media autofluorescence results were calculated by subtracting a blank plate reading from the fluorescence values obtained in drug treated cells.

## CCC(C#N)(CCCNCCOc1ccccc1OC)c1cc(OC)c(OC)c(OC)c1 (stereo not drawn) [HV 723]
[1]
  EC50: 0.417 µM
[2]
  upregulation of wild type α1b-adrenoceptor/GFP (confocal): not wild type
[3]
  upregulation of fluorescence of 3CAM α1b-adrenoceptor/GFP (confocal): Upregulation of the 3CAM

## COc1cccc(OC)c1OCCNCC1COc2ccccc2O1 (stereo not drawn) [WB 4101]
[1]
  EC50: 0.676 µM
[2]
  upregulation of wild type α1b-adrenoceptor/GFP (confocal): not wild type
[3]
  upregulation of fluorescence of 3CAM α1b-adrenoceptor/GFP (confocal): Upregulation of the 3CAM

## CCCc1ccccc1OCC(O)CNC(C)C (stereo not drawn) [dihydroalprenolol]
CAM β2-adrenoceptor-GFP
  upregulation of fluorescence of CAM β2-adrenoceptor-GFP (confocal): Upregulation of fluoresence

## Cc1ccc(N(CC2=NCCN2)c2cccc(O)c2)cc1 [phentolamine]
[1]
  EC50: 0.17 µM
[2]
  upregulation of wild type α1b-adrenoceptor/GFP (confocal): not wild type
[3]
  upregulation of fluorescence of 3CAM α1b-adrenoceptor/GFP (confocal): Upregulation of the 3CAM

## COc1cc2nc(N3CCN(C(=O)c4ccco4)CC3)nc(N)c2cc1OC [prazosin]
CAM β2-adrenoceptor-GFP
  upregulation of fluorescence of CAM β2-adrenoceptor-GFP (confocal): not recorded
3CAM α1b-adrenoceptor
  effect on 3CAM α1b-adrenoceptor level ([3H]prazosin specific binding): upregulation
[4]
  effect on wild-type α1b-adrenoceptor level ([3H]prazosin specific binding): no effect

## COC(=O)[C@@H]1[C@H]2C[C@H]3c4[nH]c5ccccc5c4CCN3C[C@@H]2CC[C@@H]1O [yohimbine]
CAM β2-adrenoceptor-GFP
  upregulation of fluorescence of CAM β2-adrenoceptor-GFP (confocal): not recorded

## thrombin
[5]
  maximum decrease (loss) in fluorescence of PAR1 mut/GFP construct: about 5%
